Reference: ChEMBL document CHEMBL1151081, “Synthesis of avermectin B1-4,4a-oxide: a precursor of potent anthelmintic agents” (Bioorg Med Chem Lett, 1992)
Converted amounts (≈) assume the structure as drawn.

What was measured:
Artemia salina = experiment: Inhibition of Artemia salina evaluated using Arternia salina Immobilization assay; format: functional
Gerbillinae [1] = experiment: In vivo Effective dose against Trichostrongylus colubriformis in Trichostrongylus colubriformis assay using gerbils; format: functional
Caenorhabditis elegans = experiment: Inhibition of Caenorhabditis elegans binding evaluated using Caenorhabditis elegans motility assay; format: functional, organism-based
Gerbillinae [2] = experiment: In vivo Effective dose against Trichostrongylus colubriformis in T. colubriformis assay using Gerbils; format: functional
[3] = Caenorhabditis elegans, read-out: IC50

Molecule | IC50 (Caenorhabditis elegans; [3]) | IC50 (Caenorhabditis elegans) | IC100 (Artemia salina) | ED85 (Gerbillinae [1]) | ED85 (Gerbillinae [2])
IVERMECTIN [listing 1 of 2 here] |  |  | 430 ng/mL | 0.063 mg/kg | 
CCC(C)[C@H]1O[C@]2(C=C[C@@H]1C)C[C@@H]1C[C@@H](C/C=C(\C)[C@@H](O[C@H]3C[C@H](OC)[C@@H](O[C@H]4C[C@H](OC)[C@@](O)(CNCC5CCCCC5)[C@H](C)O4)[C@H](C)O3)[C@@H](C)/C=C/C=C3\CO[C@@H]4[C@H](O)C(C)=C[C@@H](C(=O)O1)[C@]34O)O2 (some centres not stated) | 0.13 ng/mL (≈ 0.13 nM) |  | 55500 ng/mL | 0.25 mg/kg | 
CCC(C)[C@H]1O[C@]2(C=C[C@@H]1C)C[C@@H]1C[C@@H](C/C=C(\C)[C@@H](O[C@H]3C[C@H](OC)[C@@H](O[C@H]4C[C@H](OC)[C@@](O)(CSc5ccncc5)[C@H](C)O4)[C@H](C)O3)[C@@H](C)/C=C/C=C3\CO[C@@H]4[C@H](O)C(C)=C[C@@H](C(=O)O1)[C@]34O)O2 (some centres not stated) | 0.11 ng/mL (≈ 0.11 nM) |  | 6930 ng/mL | 0.125 mg/kg | 
IVERMECTIN [listing 2 of 2 here] |  | 0.2 ng/mL |  |  | 
CCC(C)[C@H]1O[C@]2(C=C[C@@H]1C)C[C@@H]1C[C@@H](C/C=C(\C)[C@@H](O[C@H]3C[C@H](OC)[C@@H](O[C@H]4C[C@H](OC)[C@@](O)(CSC5CCCCC5)[C@H](C)O4)[C@H](C)O3)[C@@H](C)/C=C/C=C3\CO[C@@H]4[C@H](O)C(C)=C[C@@H](C(=O)O1)[C@]34O)O2 (some centres not stated) | 1.28 ng/mL (≈ 1.28 nM) |  | 6930 ng/mL | 0.25 mg/kg | 
CCC(C)[C@H]1O[C@]2(C=C[C@@H]1C)C[C@@H]1C[C@@H](C/C=C(\C)[C@@H](O[C@H]3C[C@H](OC)[C@@H](O[C@H]4C[C@H](OC)[C@@](O)(CNCc5ccco5)[C@H](C)O4)[C@H](C)O3)[C@@H](C)/C=C/C=C3\CO[C@@H]4[C@H](O)C(C)=C[C@@H](C(=O)O1)[C@]34O)O2 (some centres not stated) | 0.1 ng/mL (≈ 0.102 nM) |  | 10415 ng/mL | 0.063 mg/kg | 
CCC(C)[C@H]1O[C@]2(C=C[C@@H]1C)C[C@@H]1C[C@@H](C/C=C(\C)[C@@H](O[C@H]3C[C@H](OC)[C@@H](O[C@H]4C[C@H](OC)[C@@](O)(CSc5ncc[nH]5)[C@H](C)O4)[C@H](C)O3)[C@@H](C)/C=C/C=C3\CO[C@@H]4[C@H](O)C(C)=C[C@@H](C(=O)O1)[C@]34O)O2 (some centres not stated) | 0.13 ng/mL (≈ 0.132 nM) |  | 430 ng/mL | 0.031 mg/kg | 
CCCNC[C@@]1(O)[C@H](C)O[C@@H](O[C@H]2[C@H](C)O[C@@H](O[C@@H]3/C(C)=C/C[C@@H]4C[C@@H](C[C@]5(C=C[C@H](C)[C@@H](C(C)CC)O5)O4)OC(=O)[C@@H]4C=C(C)[C@@H](O)[C@H]5OC/C(=C\C=C\[C@@H]3C)[C@]54O)C[C@@H]2OC)C[C@@H]1OC (some centres not stated) | 0.17 ng/mL (≈ 0.18 nM) |  | 6930 ng/mL | 0.125 mg/kg | 

More lines, main results first:

IC50 (Caenorhabditis elegans; [3]) | IC50 (Caenorhabditis elegans) | Molecule | IC100 (Artemia salina) | ED85 (Gerbillinae [1]) | ED85 (Gerbillinae [2])
0.18 ng/mL (≈ 0.187 nM) |  | CCC(C)[C@H]1O[C@]2(C=C[C@@H]1C)C[C@@H]1C[C@@H](C/C=C(\C)[C@@H](O[C@H]3C[C@H](OC)[C@@H](O[C@H]4C[C@H](OC)[C@@](O)(CSC(C)=O)[C@H](C)O4)[C@H](C)O3)[C@@H](C)/C=C/C=C3\CO[C@@H]4[C@H](O)C(C)=C[C@@H](C(=O)O1)[C@]34O)O2 (some centres not stated) | 1730 ng/mL | 0.125 mg/kg | 
0.88 ng/mL (≈ 0.875 nM) |  | CCC(C)[C@H]1O[C@]2(C=C[C@@H]1C)C[C@@H]1C[C@@H](C/C=C(\C)[C@@H](O[C@H]3C[C@H](OC)[C@@H](O[C@H]4C[C@H](OC)C(O)(CSCC(=O)OC)C[C@H](C)O4)[C@H](C)O3)[C@@H](C)/C=C/C=C3\CO[C@@H]4[C@H](O)C(C)=C[C@@H](C(=O)O1)[C@]34O)O2 (some centres not stated) | 1300 ng/mL |  | 0.063 mg/kg
1.39 ng/mL (≈ 1.45 nM) |  | CCCNCC1(O)C[C@H](C)O[C@@H](O[C@H]2[C@H](C)O[C@@H](O[C@@H]3/C(C)=C/C[C@@H]4C[C@@H](C[C@]5(C=C[C@H](C)[C@@H](C(C)CC)O5)O4)OC(=O)[C@@H]4C=C(C)[C@@H](O)[C@H]5OC/C(=C\C=C\[C@@H]3C)[C@]54O)C[C@@H]2OC)C[C@@H]1OC (some centres not stated) | 27800 ng/mL |  | 0.125 mg/kg
0.7 ng/mL (≈ 0.756 nM) |  | CCC(C)[C@H]1O[C@]2(C=C[C@@H]1C)C[C@@H]1C[C@@H](C/C=C(\C)[C@@H](O[C@H]3C[C@H](OC)[C@@H](O[C@H]4C[C@H](OC)C(O)(CC#N)C[C@H](C)O4)[C@H](C)O3)[C@@H](C)/C=C/C=C3\CO[C@@H]4[C@H](O)C(C)=C[C@@H](C(=O)O1)[C@]34O)O2 (some centres not stated) | 870 ng/mL |  | 0.031 mg/kg
0.15 ng/mL (≈ 0.147 nM) |  | CCOC(CNC[C@@]1(O)[C@H](C)O[C@@H](O[C@H]2[C@H](C)O[C@@H](O[C@@H]3/C(C)=C/C[C@@H]4C[C@@H](C[C@]5(C=C[C@H](C)[C@@H](C(C)CC)O5)O4)OC(=O)[C@@H]4C=C(C)[C@@H](O)[C@H]5OC/C(=C\C=C\[C@@H]3C)[C@]54O)C[C@@H]2OC)C[C@@H]1OC)OCC (some centres not stated) | 13900 ng/mL | 0.125 mg/kg | 
1.11 ng/mL (≈ 1.14 nM) |  | CCC(C)[C@H]1O[C@]2(C=C[C@@H]1C)C[C@@H]1C[C@@H](C/C=C(\C)[C@@H](O[C@H]3C[C@H](OC)[C@@H](O[C@H]4C[C@H](OC)C(O)(CSC(C)=O)C[C@H](C)O4)[C@H](C)O3)[C@@H](C)/C=C/C=C3\CO[C@@H]4[C@H](O)C(C)=C[C@@H](C(=O)O1)[C@]34O)O2 (some centres not stated) | 1300 ng/mL |  | 0.031 mg/kg
1.28 ng/mL (≈ 1.29 nM) |  | CCC(C)[C@H]1O[C@]2(C=C[C@@H]1C)C[C@@H]1C[C@@H](C/C=C(\C)[C@@H](O[C@H]3C[C@H](OC)[C@@H](O[C@H]4C[C@H](OC)[C@@](O)(CSCC(=O)OC)[C@H](C)O4)[C@H](C)O3)[C@@H](C)/C=C/C=C3\CO[C@@H]4[C@H](O)C(C)=C[C@@H](C(=O)O1)[C@]34O)O2 (some centres not stated) | 870 ng/mL | 0.25 mg/kg | 
